Read-outs that look alike come from different tables or passages of the source.
Experiments:
[1] = tested on: P. falciparum blood stage 3D7 strain; assay: Growth of P. falciparum blood stage 3D7 strain (phenotypic); format: cell-based, Plasmodium falciparum; settings: Figure 2A
Text: (§1) We previously reported the synthesis of a series of macrocycles, including 1 (Figure 2A), designed to investigate how structural features influence molecular chameleonicity.[15],[21] Originating from the structural similarities between 1 and hymenocardine, we investigated 1 in screens for P. falciparum and four kinetoplastid parasites: T. b. brucei, T. b. rhodesiense, T. cruzi, and L. infantum. In the screens, we also included compounds 2 and 3 (Figure 2A), which were obtained from an intermediate late in the synthetic route to 1. Since very few validated protein targets relevant to clearance of parasites are known, phenotypic assays were used to investigate the antiparasitic activity for all five parasites. For malaria, the P. falciparum blood stage 3D7 strain was used to test the three compounds. For the two Trypanosoma brucei species, the reduction in trypomastigote growth in culture medium was determined after the addition of 1–3. For T. cruzi, the intracellular parasite growth in infected human fibroblasts (MRC-5 cell line) was assessed in the presence and absence of the three inhibitors. Similarly, the growth of L. infantum was assessed in infected primary mouse macrophages (PMMs) in the presence and absence of the inhibitors. […] The assays for T. cruzi and L. infantum are complex, i.e., they determine the degree of inhibition of parasitic replication in a mammalian cell line; this complexity may lead to a high variability for some compounds.
(§2) The growth of the P. falciparum blood stage 3D7 strain,[53] the two T. brucei species in axenic cultures,[54]T. cruzi in infected human fibroblasts (MRC-5 cell line),[55] and of L. infantum in infected primary mouse macrophages (PMMs)[56] was determined as previously reported in the presence and absence of inhibitors 1–12.

[2] = tested on: primary mouse macrophages (PMMs); assay: Host cell cytotoxicity in primary mouse macrophages (PMM); format: cell-based; settings: CSV supplement; decimal comma
[3] = Kinetic solubility in phosphate buffered saline at pH 7.4; format: physicochemical; settings: phosphate buffered saline
Method: (§3) The kinetic solubility in phosphate buffered saline at pH 7.4, chromatographic Log D at pH 7.4, cell permeability across a MDCK-MDR1 cell monolayer at pH 7.4, and the clearance in mouse liver microsomes of 1–12 was determined at TCG Lifesciences.

T. b. brucei = assay: Growth of T. b. brucei trypomastigotes in axenic culture; format: cell-based; settings: Trypanosoma brucei
Text: as §1, §2

[4] = Clearance in mouse liver microsomes; format: in vitro ADME; settings: for microsomal CLint: mouse, liver microsomes
Method: as §3

T. cruzi = assay: Intracellular growth of T. cruzi in infected human fibroblasts (MRC-5 cell line); format: cell-based; settings: Trypanosoma cruzi
Text: as §1, §2

Leishmania donovani = assay: Activity against Leishmania donovani; format: cell-based
MDR1 = assay: in vitro; format: in vitro ADME, canine; settings: dog; for Papp B→A: MDCK-MDR1, pH 7.4; for Papp A→B: MDCK-MDR1, pH 7.4, Papp AB
Method: (§4) The potency of macrocycles 1–12 to inhibit the growth of L. infantum was determined in a phenotypic assay in which the parasite was grown in primary peritoneal mouse macrophages (PMMs). To understand whether the SAR for inhibition of parasitic growth is impacted by low cell permeability, the permeability of compounds 1–12 was determined separately. Madin-Darby canine kidney (MDCK) cells transfected with the human MDR1 (multidrug resistance 1) gene (MDCK-MDR1 cells) were used to determine permeabilities in the apical to basolateral direction (Papp AB) as well as efflux ratios (ERs). […] Lipophilicity (Log D at pH 7.4), aqueous kinetic solubility and mouse liver microsomal metabolism were also determined for 1–12, and are discussed separately (cf. physiochemical properties and ADMET, below).
as §3

[5] = Metabolite identification after incubation with rat liver microsomes; format: in vitro ADME; settings: Figure S3: rat liver microsomes, samples at 5, 10, 20, 30 and 60 minutes
Method: page 4: Figure S2. Endo and exo conformations for compound 5, obtained using the Monte Carlo-QM protocol for conformational sampling. Minimum energy conformations (MECs) and all conformations within 5 kcal/mol of the MECs are shown. Figure S3. Metabolically labile sites (indicated by red circles) observed for compound 3 after incubation with rat liver microsomes. Samples were collected at 5, 10, 20, 30 and 60 minutes. […]

T. b. rhodesiense = assay: Growth of T. b. rhodesiense trypomastigotes in axenic culture; format: cell-based, Trypanosoma brucei rhodesiense; settings: Trypanosoma brucei, RHODESIENSE / STIB900; CSV supplement; decimal comma; read-out: EC50 T.b. rhodesiense STIB 900
Text: as §1, §2

L. infantum = assay: Growth of L. infantum in infected primary mouse macrophages (PMMs), phenotypic assay; format: cell-based, Leishmania infantum; settings: Leishmania infantum, Macrophage
Text: as §1, §4, §2

[6] = Chromatographic Log D at pH 7.4; format: physicochemical; settings: 1-octanol/PBS pH 7.4, determined by chromatography, mean of two measurements
Method: as §3

MRC-5 cells = assay: Host cell cytotoxicity in MRC-5 cells; format: cell-based, human; settings: CSV supplement; decimal comma
[7] = Clearance in human microsomes; format: in vitro ADME; settings: CSV supplement
Text: Supplement jm4c01370_si_002.csv, table | column: CLint in vitro Human Microsomes µL/min/mg; t(1/2) min

MDCK-MDR1 cells = assay: in vitro; format: in vitro ADME, canine; settings: dog, MDCK-MDR1, pH 7.4
Method: as §4, §3

[8] = pH 7.4, CSV supplement, read-out: Kinetic solubility
[9] = pH 7.4, phosphate buffered saline pH 7.4, assay range 2.5–200 μM, read-out: solubility (kinetic)
[10] = CSV supplement, decimal comma, read-out: EC50 T.b. brucei Squib 427
[11] = Table S1, mean (SD), 2 to 14 measurements, unit not given in Table S1, read-out: In vitro potency, T. b. brucei
[12] = CSV supplement, read-out: CLint in vitro Mouse Microsomes
[13] = incubation with mouse liver microsomes, read-out: CLint
[14] = TULAHUEN, MRC5, read-out: EC50 T. cruzi Tulahuen C4 (LacZ)
[15] = MDCK-MDR1, pH 7.4, ER, efflux ratio (BA/AB)
[16] = MDCK-MDR1, pH 7.4, MDCK MDR1 - pH 7.4 Efflux Ratio
[17] = Table 1, mean (standard deviation, number of measurements), read-out: EC50 (μM), inhibition of the growth of L. infantum

Structure (SMILES)	PMM Primary Mouse Macrophages (inf-LMPH) (cytotoxicity) [2]	solubility kinetic [3, 8]	solubility kinetic [3, 9]	EC50 (T. b. brucei; [10])	EC50 (T. b. brucei; [11])	t(1/2), Mouse Microsomes ([4]; CSV supplement)	microsomal CLint [4, 12]	microsomal CLint [4, 13]	EC50 (T. cruzi; [14])	Papp B→A (MDR1)	efflux ratio (MDR1; [15])	efflux ratio (MDR1; [16])	Papp A→B (MDR1)	EC50 (T. b. rhodesiense)	EC50 (L. infantum; [17])	chromatographic logD [6]	MRC-5 cells Human Lung Fibroblast Cells (cytotoxicity) (MRC-5 cells)	also measured
CC(C)(C)OC(=O)N[C@H]1Cc2ccc(cc2)Oc2ccc(cc2NC(=O)c2ccccn2)C(=O)CNC(=O)[C@H](Cc2ccccc2)NC1=O [Compound 3, tert-Butyl ((8S,11S)-8-Benzyl-4,7,10-trioxo-3^2-(picolinamido)-2-oxa-6,9-diaza-1,3(1,4)-dibenzenacyclododecaphane-11-yl)carbamate]	>64 µM	1 µg/mL	< 2.5 µM	15.1 µM	15 µM	<3 min	> 578 µL/min/mg	> 580 µL/min/mg	20 µM	22.2 ×10⁻⁶ cm/s	6.4	6.4	3.5 ×10⁻⁶ cm/s	9.1 µM	1.8 µM	4.9	57,6 µM	potency as inhibitor of P. falciparum (in words) [1]: moderately potent; EC50 ([1]; Plasmodium falciparum, 3D7, mean (SD) from 2 to 14 measurements): 3 µM; EC50 (T. cruzi; MRC5, Figure 2A, mean (SD) from 2 to 14 measurements, read-out: EC50 T. cruzi): 10 to 30 µM; EC50 (Leishmania donovani): 1.04 ± 0.25 µM; metabolite identification, sites of metabolism [5]: oxidative metabolism occurring at the P2 and P3 positions, and at the α-carbon atom of the tyrosine moiety in the macrocyclic ring; EC50 (L. infantum; Figure 2, mean (SD), miltefosine from 19 measurements, read-out: EC50 L. infantum): < 2 µM; t(1/2), Human Microsomes [7]: <3 min; microsomal CLint ([7]; human, microsomes, read-out: CLint in vitro Human Microsomes): > 578 µL/min/mg
CC(C)(C)OC(=O)N[C@H]1Cc2ccc(cc2)Oc2ccc(cc2NC(=O)c2ccccn2)CCNC(=O)[C@H](Cc2ccccc2)NC1=O [Compound 6, tert-Butyl ((8S,11S)-8-Benzyl-7,10-dioxo-3^2-(picolinamido)-2-oxa-6,9-diaza-1,3(1,4)-dibenzenacyclododecaphane-11-yl)carbamate]	16,0 µM	3.8 µg/mL	5.9 µM	11.8 µM	12 µM	<3 min	> 578 µL/min/mg	> 580 µL/min/mg	18.8 µM	79.9 ×10⁻⁶ cm/s	8.4	8.4	> 5 ×10⁻⁶ cm/s	6.3 µM	12 µM	5.1	45,8 µM	EC50 (T. cruzi; MRC5, Table S1, mean (SD), 2 to 14 measurements, unit not given in Table S1, read-out: In vitro potency, T. cruzi): 19 µM; Papp AB (MDCK-MDR1 cells): 9.5 ×10^–6 cm/s; EC50 (L. infantum; CSV supplement, decimal comma, read-out: EC50 L. infantum MHOM/MA(BE)/67): 12.3 µM
